In patent US20250263370A1 (Tay Therapeutics Limited, priority 2022, published 2025):
Several values for one entry are separate records, joined by “and”; a condition that tells them apart may be missing. Equal entries are not always repeated.

Test system: collagen-induced arthritis
Assay: Collagen-induced arthritis (CIA) model in rats: body weight, paw volume, clinical scores, clinical observations; as to Average detailed clinical score, left hind limb: key of the grades not given here; as to Average detailed clinical score, right hind limb: key of the grades not given here; as to Detailed Clinical Scores, left forelimb: key of the grades not given here; as to Detailed Clinical Scores, left hind limb: key of the grades not given here; as to Detailed Clinical Scores, right forelimb: key of the grades not given here; as to Detailed Clinical Scores, right hind limb: key of the grades not given here; as to Detailed Clinical Scores, score: key of the grades not given here; as to Mean overall clinical score ± SD: key of the grades not given here; as to Overall clinical score: key of the grades not given here
Settings: for Mean animal paw volume ± SD: group mean; for Detailed Clinical Scores, left forelimb / Detailed Clinical Scores, left hind limb / Detailed Clinical Scores, right forelimb / Detailed Clinical Scores, right hind limb / Detailed Clinical Scores, score: individual animals ID 1-8; for Overall clinical score: individual animals #1-8
[1] = CIA rats, daily P.O. (group 4), day 21
[2] = CIA rats, daily P.O. for 21 days

`CNC(=O)c1cc(C(=O)NC2CC2)cn(Cc2ccccc2)c1=O` [GSK620] was tested, and the “Average animal paw volume percent change” value (CIA rats, Day 0, left hind paw (L)) was 0.00%, the “Animal paw volume Day 0 L” value (CIA rats, Day 0, left paw, individual animals) was 1.27 mL (2×) and 1.32 mL (2×) and 1.37 mL (2×) and 1.34 mL and 1.35 mL and the “Average animal paw volume percent change” value (CIA rats, Day 0, right hind paw (R)) was 0.00%. For the same molecule, the “Animal paw volume Day 0 R” value (CIA rats, Day 0, right paw, individual animals) was 1.27 mL and 1.31 mL and 1.28 mL and 1.37 mL (2×) and 1.33 mL (2×) and 1.34 mL, the “Average animal paw volume percent change” value (CIA rats, Day 6, left hind paw (L)) was 1.04% and the “Animal paw volume Day 6 L” value (CIA rats, Day 6, left paw, individual animals) was 1.27 mL and 1.34 mL (2×) and 1.37 mL and 1.36 mL and 1.38 mL and 1.32 mL and 1.35 mL. The “Average animal paw volume percent change” value (CIA rats, Day 6, right hind paw (R)) was 1.50%, the “Animal paw volume Day 6 R” value (CIA rats, Day 6, right paw, individual animals) was 1.27 mL and 1.35 mL and 1.38 mL and 1.37 mL and 1.39 mL and 1.33 mL (2×) and 1.34 mL and the “Average animal paw volume percent change” value (CIA rats, Day 12, left hind paw (L)) was 3.13%. The “Animal paw volume Day 12 L” value (CIA rats, Day 12, left paw, individual animals) was 1.33 mL (2×) and 1.41 mL and 1.37 mL and 1.42 mL and 1.36 mL and 1.35 mL and 1.38 mL, the “Average animal paw volume percent change” value (CIA rats, Day 12, right hind paw (R)) was 3.69% and the “Animal paw volume Day 12 R” value (CIA rats, Day 12, right paw, individual animals) was 1.31 mL and 1.35 mL and 1.42 mL and 1.39 mL (2×) and 1.38 mL (2×) and 1.37 mL. For the same molecule, the “Average animal paw volume percent change” value (CIA rats, Day 13, left hind paw (L)) was 4.09%, the “Animal paw volume Day 13 L” value (CIA rats, Day 13, left paw, individual animals) was 1.34 mL (2×) and 1.43 mL (2×) and 1.36 mL and 1.37 mL and 1.38 mL and 1.40 mL and the “Average animal paw volume percent change” value (CIA rats, Day 13, right hind paw (R)) was 6.88%. For the same molecule, the “Animal paw volume Day 13 R” value (CIA rats, Day 13, right paw, individual animals) was 1.40 mL and 1.35 mL and 1.42 mL (2×) and 1.57 mL and 1.37 mL and 1.41 mL and 1.39 mL, the “Average animal paw volume percent change” value (CIA rats, Day 14, left hind paw (L)) was 17.19% and the “Animal paw volume Day 14 L” value (CIA rats, Day 14, left paw, individual animals) was 1.55 mL and 1.78 mL and 1.44 mL and 1.36 mL and 1.43 mL and 1.40 mL and 1.73 mL (2×). The “Average animal paw volume percent change” value (CIA rats, Day 14, right hind paw (R)) was 26.62%, the “Animal paw volume Day 14 R” value (CIA rats, Day 14, right paw, individual animals) was 1.74 mL and 1.49 mL and 1.44 mL and 2.11 mL and 1.43 mL and 1.38 mL and 1.99 mL and 1.83 mL and the “Average animal paw volume percent change” value (CIA rats, Day 15, left hind paw (L)) was 31.82%. For the same molecule, the “Animal paw volume Day 15 L” value (CIA rats, Day 15, left paw, individual animals) was 2.04 mL and 2.03 mL and 1.39 mL and 1.49 mL and 1.52 mL and 1.60 mL and 2.14 mL and 1.75 mL, the “Average animal paw volume percent change” value (CIA rats, Day 15, right hind paw (R)) was 40.45% and the “Animal paw volume Day 15 R” value (CIA rats, Day 15, right paw, individual animals) was 2.05 mL and 2.08 mL and 1.38 mL and 2.42 mL and 1.47 mL and 1.56 mL and 2.13 mL and 1.79 mL. For the same molecule, the “Average animal paw volume percent change” value (CIA rats, Day 18, left hind paw (L)) was 87.52%, the “Animal paw volume Day 18 L” value (CIA rats, Day 18, left paw, individual animals) was 2.72 mL and 2.54 mL and 2.39 mL and 2.87 mL and 2.29 mL and 2.05 mL and 2.66 mL and 2.34 mL and the “Average animal paw volume percent change” value (CIA rats, Day 18, right hind paw (R)) was 78.42%. For the same molecule, the “Animal paw volume Day 18 R” value (CIA rats, Day 18, right paw, individual animals) was 2.62 mL and 2.45 mL and 2.41 mL and 3.15 mL and 1.46 mL and 2.04 mL and 2.38 mL and 2.34 mL, the “Average animal paw volume percent change” value (CIA rats, Day 19, left hind paw (L)) was 92.23% and the “Animal paw volume Day 19 L” value (CIA rats, Day 19, left paw, individual animals) was 2.71 mL and 2.54 mL and 2.32 mL (2×) and 3.06 mL and 2.61 mL and 2.19 mL and 2.63 mL. The “Average animal paw volume percent change” value (CIA rats, Day 19, right hind paw (R)) was 78.62%, the “Animal paw volume Day 19 R” value (CIA rats, Day 19, right paw, individual animals) was 2.59 mL and 2.46 mL and 2.33 mL (2×) and 3.15 mL and 1.46 mL and 2.20 mL and 2.36 mL and the “Average animal paw volume percent change” value (CIA rats, Day 21, left hind paw (L)) was 91.34%. The “Animal paw volume Day 21 L” value (CIA rats, Day 21, left paw, individual animals) was 2.71 mL and 2.51 mL and 2.34 mL and 3.04 mL and 2.62 mL and 2.21 mL and 2.54 mL and 2.32 mL, the “Average animal paw volume percent change” value (CIA rats, Day 21, right hind paw (R)) was 78.28% and the “Animal paw volume Day 21 R” value (CIA rats, Day 21, right paw, individual animals) was 2.63 mL and 2.44 mL and 2.21 mL and 3.08 mL and 1.61 mL and 2.18 mL and 2.37 mL and 2.33 mL. The “animals with a clinical score of at least 2 in one or more hind limbs” value (CIA rats, daily P.O. (group 4), day 14) was 5/8, the “animals with clinical scores of 3 or greater in one or more hind limbs” value (CIA rats, daily P.O. (group 4), day 18) was “all animals” and the “animals with a clinical score of 4 in each hind limb” value [1] was 3/8. The “animals with a score of 4 in at least one hind limb” value [1] was 5/8, the “day on which clinical scores started to increase” value [2] was 14 days and the “effect on hind paw volume” value [2] was “less effective at preventing an increase in paw volume over the course of the study”. For the same molecule, the “average overall clinical score at plateau” value (CIA rats, daily P.O. for 21 days, around day 18) was 8, the “animals showing signs of disease” value (CIA rats, daily P.O., day 12) was “No animals” and the animals exhibiting disease (CIA rats, daily P.O., day 13) was 1/8. For the same molecule, the animals exhibiting disease (CIA rats, daily P.O., day 14) was 5/8, the animals exhibiting disease (CIA rats, daily P.O., day 15) was 7/8 and the animals exhibiting disease (CIA rats, daily P.O., day 18) was “all animals”. The “Mean animal paw volume ± SD” value (Day 0, L paw) was 1.32 mL, the “Animal paw volume percent change” value (Day 0, L paw, individual animals) was 0.00% and the “Mean animal paw volume ± SD” value (Day 0, R paw) was 1.32 mL. The “Animal paw volume percent change” value (Day 0, R paw, individual animals) was 0.00%, the “Average detailed clinical score, left forelimb” value (Day 0, CIA rats) was 0.00 and the “Average detailed clinical score, left hind limb” value (Day 0, CIA rats) was 0.00. For the same molecule, the “Average detailed clinical score, right forelimb” value (Day 0, CIA rats) was 0.00, the “Average detailed clinical score, right hind limb” value (Day 0, CIA rats) was 0.00 and the “Average detailed clinical score, score” value (Day 0, CIA rats) was 0.00. The “Mean overall clinical score ± SD” value (Day 0, CIA rats) was 0 ± 0, the “Detailed Clinical Scores, left forelimb” value (Day 0, CIA rats) was 0 and the “Detailed Clinical Scores, left hind limb” value (Day 0, CIA rats) was 0. For the same molecule, the “Detailed Clinical Scores, right forelimb” value (Day 0, CIA rats) was 0, the “Detailed Clinical Scores, right hind limb” value (Day 0, CIA rats) was 0 and the “Detailed Clinical Scores, score” value (Day 0, CIA rats) was 0. The Overall clinical score (Day 0, CIA rats) was 0, the “Mean animal paw volume ± SD” value (Day 6, L paw) was 1.34 mL and the “Animal paw volume percent change” value (Day 6, L paw, individual animals) was −0.39% and 1.52% and 7.91% and −0.73% and 0.36% and 0.00% (2×) and −0.37%. The “Mean animal paw volume ± SD” value (Day 6, R paw) was 1.34 mL, the “Animal paw volume percent change” value (Day 6, R paw, individual animals) was −0.39% and 3.07% and 7.84% and 0.00% (4×) and 1.47% and the “Average detailed clinical score, left forelimb” value (Day 6, CIA rats) was 0.00. For the same molecule, the “Average detailed clinical score, left hind limb” value (Day 6, CIA rats) was 0.00, the “Average detailed clinical score, right forelimb” value (Day 6, CIA rats) was 0.00 and the “Average detailed clinical score, right hind limb” value (Day 6, CIA rats) was 0.00. For the same molecule, the “Average detailed clinical score, score” value (Day 6, CIA rats) was 0.00, the “Mean overall clinical score ± SD” value (Day 6, CIA rats) was 0 ± 0 and the “Detailed Clinical Scores, left forelimb” value (Day 6, CIA rats) was 0. The “Detailed Clinical Scores, left hind limb” value (Day 6, CIA rats) was 0, the “Detailed Clinical Scores, right forelimb” value (Day 6, CIA rats) was 0 and the “Detailed Clinical Scores, right hind limb” value (Day 6, CIA rats) was 0. The “Detailed Clinical Scores, score” value (Day 6, CIA rats) was 0, the Overall clinical score (Day 6, CIA rats) was 0 and the “Mean animal paw volume ± SD” value (Day 12, L paw) was 1.36 mL. The “Animal paw volume percent change” value (Day 12, L paw, individual animals) was 4.33% and 0.76% and 11.07% and 0.00% and 3.28% and 1.50% and 2.28% and 1.85%, the “Mean animal paw volume ± SD” value (Day 12, R paw) was 1.37 mL and the “Animal paw volume percent change” value (Day 12, R paw, individual animals) was 2.76% and 3.07% and 10.98% and 1.47% (2×) and 3.77% (2×) and 2.25%. The “Average detailed clinical score, left forelimb” value (Day 12, CIA rats) was 0.00, the “Average detailed clinical score, left hind limb” value (Day 12, CIA rats) was 0.00 and the “Average detailed clinical score, right forelimb” value (Day 12, CIA rats) was 0.00. The “Average detailed clinical score, right hind limb” value (Day 12, CIA rats) was 0.00, the “Average detailed clinical score, score” value (Day 12, CIA rats) was 0.00 and the “Mean overall clinical score ± SD” value (Day 12, CIA rats) was 0 ± 0. For the same molecule, the “Detailed Clinical Scores, left forelimb” value (Day 12, CIA rats) was 0, the “Detailed Clinical Scores, left hind limb” value (Day 12, CIA rats) was 0 and the “Detailed Clinical Scores, right forelimb” value (Day 12, CIA rats) was 0. For the same molecule, the “Detailed Clinical Scores, right hind limb” value (Day 12, CIA rats) was 0, the “Detailed Clinical Scores, score” value (Day 12, CIA rats) was 0 and the Overall clinical score (Day 12, CIA rats) was 0.
